This data set in a line: in vitro. The settings on record: human, hela cells, % viability.

Usually viability stands for a read-out of living cells in per cent, often relative to untreated cells.

Structures are written as SMILES.

Consider `Cc1cnc2[nH]c(C(F)(F)F)c(CN3CCSCC3)c2c1` [CBK284767], for which the viability at 28.5 h, 10 µM was found to be 90%.

On to `Cc1ccc(C)c(NC(=O)CCc2c(C)[nH]c3ncnn3c2=O)c1` [CBK304646], for which the viability at 28.5 h, 10 µM was found to be 94.5%.

As for `O=C(CN1C(=O)c2ccccc2C1=O)Nc1cc(C(=O)O)cc(C(=O)O)c1` [CBK262024], the viability at 28.5 h, 10 µM amounted to 102%.

In the case of `Cc1ccc2ccccc2c1Cn1cc(-c2ccc([N+](=O)[O-])cc2)nc1SCC(=O)NC(C)(C)C` [CBK264493], the viability at 28.5 h, 10 µM worked out at 115%.

As to `O=C(CCS(=O)(=O)c1ccccc1)Nc1cc2ccccc2c(N2CCNCC2)n1` [CBK028419T], the viability at 28.5 h, 10 µM was 88.1%.

`CCOC(=O)c1sc(C)c(C(N)=O)c1/N=C1\CCCN1` [CBK020893]: the viability at 28.5 h, 10 µM amounted to 105%.

For the molecule `COc1ccc(CNC(=O)CC[C@H]2CNC(=O)[C@H]3NCC[C@H]3N2C)cc1` [CBK289025], the viability at 28.5 h, 10 µM stood at 87.6%.

As for `CC(Oc1ccc(Cl)cc1Cl)C(=O)Nc1ccc(O)cc1` (centres unmarked) [CBK264120], the viability at 28.5 h, 10 µM amounted to 94.8%.

`C/C(=C(/C(=O)N(N)c1nc2ccccc2s1)C(=O)C(F)(F)F)N1CCC(C(N)=O)(N2CCCCC2)CC1` [CBK265787]: the viability at 28.5 h, 10 µM worked out at 101%.

For `CCN1CC2(CCN(CCCn3c(=O)[nH]c4ccccc43)CC2)c2ccccc21` [CBK131483], the viability at 28.5 h, 10 µM turned out to be 93.7%.

As to `COCCN(Cc1cnn(C)c1)C(=O)c1ccc2oc(C)cc2c1` [CBK307059], the viability at 28.5 h, 10 µM turned out to be 96.6%.

`CC(=O)Nc1ccc(-c2ccc(COC3CCN(C(=O)Cc4ccc(C#N)cc4)CC3)cc2)cc1` [CBK149225]: the viability at 28.5 h, 10 µM turned out to be 91.7%.

With `Cc1c2c(n(-c3ccccc3)[n+]1[O-])NC1(CCC1)[C@@H]1C[C@@H](O)[C@@H](O)[C@H]21` [CBK303253], the viability at 28.5 h, 10 µM is 91.5%.

Regarding `CC12CCC(C(=O)Nc3ccccc3)(OC1=O)C2(C)C` (centres unmarked) [CBK018129], the viability at 28.5 h, 10 µM turned out to be 96.4%.

Turning to `O=C1CC(C(=O)Nc2ccc3c(c2)OCO3)n2c(nc3ccccc32)N1` (centres unmarked) [CBK270177], the viability at 28.5 h, 10 µM came to 93.6%.

Consider `Cc1ccc(Nc2ncc(C(=O)NCc3ccccn3)c3ccccc23)cc1Cl` [CBK291113], for which the viability at 28.5 h, 10 µM stood at 109%.

In the case of `Cc1cnn(CC2CC2)c1NC(=O)Cc1csc(N2CCCC2=O)n1` [CBK304940], the viability at 28.5 h, 10 µM turned out to be 92.4%.

In the case of `CCCOc1ccc(N2C(=O)CC(N3CCC(C(=O)O)CC3)C2=O)cc1` (centres unmarked) [CBK287235], the viability at 28.5 h, 10 µM was 102%.

Consider `CCCc1ccc(C(=O)N2CCC(C(=O)c3cccnc3)CC2)o1` [CBK285482], for which the viability at 28.5 h, 10 µM is 101%.

As to `COc1cc(OC)nc(Oc2ccccc2C(=O)O)n1` [CBK092218], the viability at 28.5 h, 10 µM was determined as 84.6%.

Take `CC(NC(=O)n1ccc2c(N3CCNCC3)cccc21)c1ccccc1` (centres unmarked) [CBK003729C]: the viability at 28.5 h, 10 µM is 90.7%.

With `COC(=O)Nc1sc2c(c1C(=O)N1CCOCC1)CCC(C)C2` (centres unmarked) [CBK307413], the viability at 28.5 h, 10 µM was 95%.

Take `Cc1cc2nc(/C(C#N)=C/c3cc(C)n(-c4ccc(C(=O)O)cc4)c3C)[nH]c2cc1C` [CBK269105]: the viability at 28.5 h, 10 µM was 92.1%.

Take `CC[C@H]1CN(C(=O)C(C)(C)C)CC[C@H]1CC(=O)NCc1cccnc1` [CBK289135]: the viability at 28.5 h, 10 µM came out at 97.8%.

With `O=C(O)COc1ccc(N2C(=O)c3ccc(-c4nc5ccccc5c(=O)o4)cc3C2=O)cc1` [CBK265659], the viability at 28.5 h, 10 µM is 106%.

As for `COc1cc(C(=O)N2CCC3(CC2)CC(=O)c2cc(NC(C)=O)ccc2O3)nc2c(OC)cccc12` [CBK170664], the viability at 28.5 h, 10 µM is 122%.

As to `CCC(=O)NC(Nc1cc(Cl)ccc1OC)(C(F)(F)F)C(F)(F)F` [CBK261342], the viability at 28.5 h, 10 µM worked out at 96.3%.

Consider `COC(=O)C(N)c1c[nH]c2ccccc12` (centres unmarked) [CBK089840], for which the viability at 28.5 h, 10 µM turned out to be 104%.

Regarding `COc1ccc([C@H]2CN(C(=O)c3ccccc3)[C@@H]3CCN(Cc4ccccc4)C[C@H]23)cc1` [CBK285592], the viability at 28.5 h, 10 µM is 98.5%.

As for `O=C1/C(=N\O)c2cc(Cl)ccc2N1Cc1ccccc1` [CBK288468], the viability at 28.5 h, 10 µM was 91.5%.

As to `COc1ccc(Cn2nc(C(=O)Nc3nnc(C(F)(F)F)s3)c3ccccc32)cc1` [CBK047884], the viability at 28.5 h, 10 µM (bulk resorufin, single well) amounted to 99.3%.

Take `O=C(CCN1C(=O)COc2ccccc21)Nc1ccnn1Cc1ccccc1Br` [CBK296740]: the viability at 28.5 h, 10 µM was 99.8%.

With `O=C(O)c1ccc(CSc2nnnn2-c2ccccc2)cc1` [CBK286726], the viability at 28.5 h, 10 µM was determined as 85.1%.

On to `O=C1NCCc2c1[nH]c1c(Cl)cccc21` [CBK015762], for which the viability at 28.5 h, 10 µM came out at 78.2%.

As for `COCCN1CC(CNC(=O)c2ccc(N3CCCC3)c(Cl)c2)CC1=O` (centres unmarked) [CBK307680], the viability at 28.5 h, 10 µM came out at 84%.

With `CCOC(=O)Nc1ccc2c(c1)N(C(=O)CCN1CCOCC1)c1ccccc1CC2` [CBK261291C], the viability at 28.5 h, 10 µM amounted to 103%.

Regarding `Cc1nnnn1-c1cc(NC(=O)N(C)C(C)C)ccc1F` [CBK304708], the viability at 28.5 h, 10 µM turned out to be 93.2%.

For `CCc1nn(CC(=O)N(CC)CC)c(=O)c2cc3sc(C)cc3n12` [CBK284121], the viability at 28.5 h, 10 µM stood at 86.2%.

Turning to `O=C(CCn1c(-c2ccncc2)cc2cccnc21)NC1CCCCC1` [CBK282621], the viability at 28.5 h, 10 µM was 87.8%.

For `CCNC(=O)N1CC2(CCN(Cc3ccc(OC(F)(F)F)cc3)CC2)c2ccccc21` [CBK126688], the viability at 28.5 h, 10 µM came out at 115%.

In the case of `NS(=O)(=O)c1ccc(NC(=O)CN2C(=O)S/C(=C\C=C\c3ccccc3)C2=O)cc1` [CBK264835], the viability at 28.5 h, 10 µM was 94.6%.

On to `Cc1ccc(OCC(=O)Nc2ccccc2N2CCN(S(C)(=O)=O)CC2)cc1` [CBK268722], for which the viability at 28.5 h, 10 µM amounted to 84%.

In the case of `O=C(/C=C/c1ccccc1[N+](=O)[O-])NCCN1CCOCC1` [CBK265596], the viability at 28.5 h, 10 µM is 97.8%.

For the molecule `Cc1nc(CN2CCC3(CC2)CN(S(C)(=O)=O)c2ccccc23)cs1` [CBK126687], the viability at 28.5 h, 10 µM worked out at 96.3%.

For the molecule `Cc1cc(OCC(=O)NCc2cccnc2)cc(C)c1Cl` [CBK263658], the viability at 28.5 h, 10 µM stood at 86.5%.

Consider `O=C(CN(c1ccccc1)S(=O)(=O)c1ccccc1[N+](=O)[O-])Nc1ccc(C(F)(F)F)cc1` [CBK267137], for which the viability at 28.5 h, 10 µM turned out to be 64.6%.

Take `COc1cccc(NC(=O)N2CC[C@H]3CC(=O)N(c4ccccc4)CC[C@H]3C2)c1` [CBK288787]: the viability at 28.5 h, 10 µM worked out at 95.4%.

For `O=C(c1[nH]nc(O)c1Cc1c(Cl)cccc1Cl)N1CCOCC1` [CBK107228], the viability at 28.5 h, 10 µM turned out to be 101%.

Take `O=C1NC2(CCN(C(=O)Cc3ccsc3)CC2)Nc2ccccc21` [CBK283963]: the viability at 28.5 h, 10 µM was 94.7%.

In the case of `CC(C)c1cc(C(=O)NC2CCOc3ccccc32)no1` (centres unmarked) [CBK283065], the viability at 28.5 h, 10 µM was 93.9%.

`CCC(C)c1ccccc1NC(=O)c1cc(=O)[nH]c2ccccc12` (centres unmarked) [CBK297516]: the viability at 28.5 h, 10 µM was found to be 89.6%.

In the case of `Fc1cccc2sc(Nc3nc(-c4ccccn4)cs3)nc12` [CBK287479], the viability at 28.5 h, 10 µM came to 108%.

With `Cc1cnc2[nH]c(C(C)C)c(CN3CCCOCC3)c2c1` [CBK284742], the viability at 28.5 h, 10 µM was determined as 90.7%.

As to `Clc1cccc(-n2cnnn2)c1Cl` [CBK027665], the viability at 28.5 h, 10 µM turned out to be 77.7%.

On to `O=C(/C=C/c1ccccc1)NC(=S)Nc1cccc(-c2nc3ncccc3o2)c1` [CBK263742], for which the viability at 28.5 h, 10 µM worked out at 103%.

Take `CC(=O)N[C@H]1CC[C@]2(C)CCC([C@H](C)C(=O)NCCN3CCCC3)[C@H](O)[C@H]2[C@@H]1C` (some centres unmarked) [CBK289440]: the viability at 28.5 h, 10 µM is 86.5%.

Regarding `O=C(c1cccnc1)N1CCN(C2CC(=O)N(c3ccc(F)cc3)C2=O)CC1` (centres unmarked) [CBK270049], the viability at 28.5 h, 10 µM amounted to 91.5%.

Regarding `CC(C)(C)OC(=O)CN1C(=O)N[C@@H]2CCCC[C@@H]21` [CBK003423], the viability at 28.5 h, 10 µM is 84.8%.

In the case of `CN1CCN(c2cccc(-c3ccccc3Oc3ccccc3)n2)CC1` [CBK037598], the viability at 28.5 h, 10 µM amounted to 101%.

As to `CN1CCN(c2nccnc2-c2cccc(F)c2)CC1` [CBK036876], the viability at 28.5 h, 10 µM was determined as 89.8%.

Regarding `O=C(CN1CCCC1Cn1cncn1)NCCc1ccsc1` (centres unmarked) [CBK305113], the viability at 28.5 h, 10 µM came to 85.2%.

In the case of `CCOc1cc(/C=C2/C(=O)NC(=S)N(c3ccccc3CC)C2=O)ccc1OC(C)C(=O)O` (centres unmarked) [CBK264460], the viability at 28.5 h, 10 µM (bulk resorufin, single well) stood at 97.8%.

In the case of `COCCN1CCn2c(nc3cc(NC(=O)C4CCCCC4)ccc32)C1` [CBK307411], the viability at 28.5 h, 10 µM is 112%.

Regarding `COc1ccc(NC(=O)CSc2nnc(C3CC3)n2C)c(OC)c1` [CBK270303], the viability at 28.5 h, 10 µM was 81.9%.

As to `O=C(NC(=O)C1CCN(CC2COc3ccccc3O2)CC1)Nc1ccccc1` (centres unmarked) [CBK035267], the viability at 28.5 h, 10 µM came to 92.4%.

Take `COc1ccc(NC(=O)c2ccc(N3CCN(Cc4ccccc4)CC3)c([N+](=O)[O-])c2)cc1` [CBK263260]: the viability at 28.5 h, 10 µM came out at 106%.

On to `COCc1cc(C[C@@H]2C[C@H](NC(=O)C(C)(C)C)C2(C)C)no1` [CBK289251], for which the viability at 28.5 h, 10 µM worked out at 81.3%.

For `Cc1ccc(C(C)C)c(OCc2ccc(C(=O)O)o2)c1` [CBK078089], the viability at 28.5 h, 10 µM was 108%.

`CCN1CCC(NC(=O)CSc2nc3ccccc3n2CCOC)CC1` [CBK306100]: the viability at 28.5 h, 10 µM was found to be 118%.

For `C[C@@H](c1ccccc1)N1C(=O)[C@@H]2CN(C(=O)CC3(CC(=O)O)CCCC3)CCN2C1=O` [CBK289637], the viability at 28.5 h, 10 µM stood at 88.7%.

As for `Cc1ccc(Cl)cc1N1CCN(C(=O)COc2ccc(S(=O)(=O)Nc3ccc(F)cc3)cc2)CC1` [CBK268229], the viability at 28.5 h, 10 µM turned out to be 92.1%.

With `O=C(NCCc1ccccc1)c1cc(-c2ccccc2Cl)[nH]n1` [CBK288113], the viability at 28.5 h, 10 µM turned out to be 105%.

`Cc1ccc(CNC(=O)Cn2nnc(-c3ccc(CN4CC(C)OC(C)C4)cc3)n2)cc1` (centres unmarked) [CBK144554C]: the viability at 28.5 h, 10 µM amounted to 64.2%.

Take `CC(=O)N1CCN(C(=O)C2C(C(=O)O)C2(C)C)CC1` (centres unmarked) [CBK287021]: the viability at 28.5 h, 10 µM was found to be 102%.

`NS(=O)(=O)c1ccccc1Cl` [CBK113172]: the viability at 28.5 h, 10 µM was 98.1%.

In the case of `CCc1nc2ccc(C(=O)N(C)CCN(C)C)cn2c1N(C)C(=O)C1CCCCC1` [CBK145771], the viability at 28.5 h, 10 µM was 93.8%.

Consider `CCN(CC)CCNc1nc2cc(Cl)ccc2[nH]1` [CBK262453], for which the viability at 28.5 h, 10 µM amounted to 102%.

Values taken from paper PMC12040169 (PLOS Biology, 2025).
